Data set [1] deals with CD1 mice administered 1% ethylene glycol. In words: Mouse ethylene glycol model of hyperoxaluria, urinary oxalate. The note with it: mice, once-daily oral gavage, 100 mg/kg. It counts as in vivo. Here is the method:
Mouse Models of Hyperoxaluria for Determining In Vivo Efficacy of hGOX Inhibitors
Male CD1 mice, 6-8 weeks of age (Charles River Labs, Wilmington, Mass.) were administered 1% ethylene glycol ad libitum their drinking water for 14 days. The mice were housed in individual cages, fed ad libitum and 24-h urine collections were initiated on days 1, 5, 9 and 14 using a 15-rack metabolic cage system equipped with a CCS2000 chiller system (Hatteras Instruments, Cary, N.C.) to maintain the samples at 4° C. during collection. Hydrochloric acid (100 μL of 6N) added to the collection vials to acidify the samples and prevent degradation of oxalate before evaluation.
Urine samples were maintained at 4° C. and urinary oxalate concentrations were determined within 24 hours of sample collection using a Trinity Biotech oxalate assay kit (Catalog #591-D). The assay was an enzymatic method based on the oxidation of oxalate by oxalate oxidase followed by measurement of hydrogen peroxide (H2O2) produced during the peroxidase-catalyzed reaction. Briefly, a 1-mL aliquot of each sample was diluted with an equal volume of assay diluent to bring the pH to between 5.0 and 7.0, then placed into purifier tubes (provided in the kit) and mixed for 5 min. The tubes were centrifuged for 5 min at 2000 rpm (1500×g) and the supernatants collected for the oxalate assay. The procedure was specific for oxalate with no special equipment and was easily adaptable for clinical automated analyzers. Each assay included a standard curve prepared with a standardized oxalate control sample (included in the kit) and internal assay control samples for both a normal (0.2-0.3 mmol/L) and elevated (0.86-1.21 mmol/L) level of oxalate.
To evaluate in vivo efficacy, mice were dosed by once-daily oral gavage of compound I-002 in an appropriate vehicle (e.g., phosphate-buffered saline, pH 7.4) at a dosage of 100 mg/kg. […]
The effect of example I-001 in the ethylene glycol model using CD-1 mice was evaluated by twice-daily, oral gavage dosing at 50 mg/kg for 6 days (days 5-11). […]

The target in data set [2] is glycolate oxidase (GOX) in HepaRG-CAR cells (Homo sapiens (Human), UniProt Q9UJM8). The data set is described as follows: HepaRG-CAR cell-based assay for quantitation of glycolate oxidase inhibition (cellular glycolate flux, GC-MS). The note with it: HepaRG-CAR cells, 500 μM glycolate, 48 hours incubation; read-out: IC50.
Chain of glycolate oxidase (GOX) in HepaRG-CAR cells (Q9UJM8 whole entry): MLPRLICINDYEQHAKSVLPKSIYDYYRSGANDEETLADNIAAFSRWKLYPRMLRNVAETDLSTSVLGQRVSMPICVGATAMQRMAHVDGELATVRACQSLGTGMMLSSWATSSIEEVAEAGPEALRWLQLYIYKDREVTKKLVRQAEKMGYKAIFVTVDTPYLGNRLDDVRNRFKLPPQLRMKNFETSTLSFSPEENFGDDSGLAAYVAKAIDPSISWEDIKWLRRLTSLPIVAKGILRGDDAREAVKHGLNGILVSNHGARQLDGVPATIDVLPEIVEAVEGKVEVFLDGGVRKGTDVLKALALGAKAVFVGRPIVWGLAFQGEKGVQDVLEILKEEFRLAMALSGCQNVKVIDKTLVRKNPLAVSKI
Data set [3] can be described thus: Solubility in phosphate buffered saline (PBS), pH 7.4. The format is physicochemical. Particulars: phosphate buffer (PBS), aqueous buffer, kinetic from dmso stock; phosphate buffered saline pH 7.4, 1% DMSO, 1 hour shaking at room temperature. The procedure, abridged:
(§1)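 DMSO stock (10 mM) diluted into 100 mM phosphate buffer pH 7.4, or into deionized distilled water for the aqueous assay, at 1% final DMSO and shaken 1 h at room temperature. After centrifugation, supernatants quantified by LC-MS/MS against a calibration curve with internal standard.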

The nature of data set [4]: Protein binding (plasma equilibrium dialysis). It counts as in vitro ADME. Particulars: 5 hours at 37° C. A digest of the protocol: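 Compound spiked into plasma at 1 μM final (0.2% DMSO) and dialysed against phosphate buffer for 5 hours at 37 °C with shaking. Donor and receiver samples, matrix-matched and acetonitrile-quenched with internal standard, quantified by LC/MS/MS alongside 0-hour plasma samples.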
Background: Equilibrium dialysis compares concentrations on both sides of a semipermeable membrane.

Data set [5] can be described thus: Metabolic stability in human liver microsomal preparation. It counts as in vitro ADME. The note with it: pH 7.4, human liver microsomes, NADPH, 37° C.; for half-life at 1 μM: 0-45 min, read-out: Metabolic Stability t1/2. A digest of the protocol:
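Compound at 1.5 μM with 0.75 mg/mL human liver microsomes (concentrations before NADPH addition) in 0.1 M potassium phosphate, 1 mM EDTA, pH 7.4 was preincubated 5 min at 37 °C, then started with NADPH. Samples at 0, 5, 15, 30 and 45 min were quenched with acetonitrile/internal standard and analysed by LC/MS.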
Background: Microsomes from liver hold many membrane-bound enzymes, among them those of drug oxidation.

Data set [6] in a line: Stability in human plasma. The format is in vitro ADME. The note with it: read-out: Plasma Stability T1/2. The procedure, abridged: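 Pooled human plasma (pH 7.4-8) at 37° C, test compound spiked from a 0.02 mM solution in phosphate buffer with 0.5% BSA. Samples taken at 0, 5, 15, 30, 45 and 60 min, quenched with acetonitrile containing internal standard, and remaining compound measured by LC/MS.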

A short description of data set [7]: Solubility in aqueous solution (deionized, distilled water). Particulars: kinetic from dmso stock, 1% DMSO, read-out: Aqueous Solubility H2O. It counts as physicochemical. A digest of the protocol:
as §1

The target in data set [8] is recombinant full-length human hydroxyacid oxidase 1 (HAO1), the equivalent of hGOX (Homo sapiens (Human), UniProt Q9UJM8). The data set is described as follows: In-vitro human glycolate oxidase (hGOX) assay (Amplex red/HRP fluorescence). The format is biochemical.
Chain of recombinant full-length human hydroxyacid oxidase 1 (HAO1), the equivalent of hGOX (Q9UJM8 whole entry): as above
Description: Biological Activity Assay: In-Vitro Human Glycolate Oxidase (hGOX) Assay
The in-vitro glycolate oxidase assay was performed using recombinant full-length human hydroxyacid oxidase 1 (HAO1), the equivalent of hGOX. […] Purified HAO1 was dissolved in assay buffer consisting of 10 mM NaCl, 110 mM KCl, 2 mM MgCl2, 50 mM HEPES (pH 7.4) and 0.01% Triton™ X-100.

The structures appear in SMILES notation. In brackets after ≈: the same amount, converted by molar mass.

We go through five molecules from patent publication US11389456B2, “Compounds and methods for treating oxalate-related diseases” (OxaluRx, Inc., priority 2018, dated 2022).

For the molecule `CCOC(=O)c1nn[nH]c1Sc1ccc(Cl)cc1` [Example I-002, Ethyl 5-((4-chlorophenyl)thio)-1H-1,2,3-triazole-4-carboxylate], the “reduction in urinary oxalate” value in data set [1] is given as “statistically significant reduction”.

A word on the IC50: it is the concentration needed to halve the response being measured. As a reminder, the solubility is the dissolved amount per volume that the medium holds. The term CLint scaled denotes the capacity of the preparation to metabolise the compound, expressed as a volume cleared per time. A higher CLint scaled goes with faster metabolism. Regarding `O=C(O)c1nn[nH]c1Oc1cccc(-c2cccc(Cl)c2)c1` [Example I-253, 5-((3′-Chloro-[1,1′-biphenyl]-3-yl)oxy)-1H-1,2,3-triazole-4-carboxylic acid], the figures for the 50% inhibitory concentration (IC50) in data set [2] and in data set [8] were 2500 nM and 9 nM, respectively. Moreover, the solubility at 1 h in data set [3] is 102 µM (≈ 32.2 µg/mL); in data set [7], 91.7 µM (≈ 29 µg/mL). In data set [4], this molecule showed a recovery at 5 h, 1 μM of 112%. In addition, in data set [5], the intrinsic clearance (CLint scaled) at 1 μM was found to be 5.51 mL/min/kg. Moreover, in data set [5], the half-life at 1 μM came out at 5.26 h. Besides, the half-life at 2 μM in data set [6] stood at 1.78 h.

`Cc1ccc(-c2cccc(Oc3[nH]nnc3C(=O)O)c2)cc1` [Example I-251, 5-((4′-Methyl-[1,1′-biphenyl]-3-yl)oxy)-1H-1,2,3-triazole-4-carboxylic acid]: the values for the IC50 in data set [2] and in data set [8] were 2500 nM and 13 nM, respectively. Further, the solubility at 1 h in data set [3] was found to be 108 µM (≈ 31.9 µg/mL); in data set [7] it was 101 µM (≈ 29.8 µg/mL). This molecule displayed a recovery at 5 h, 1 μM in data set [4] of 98.2%. Further, the CLint scaled at 1 μM in data set [5] amounted to 17.7 mL/min/kg. Also, the half-life at 1 μM in data set [5] turned out to be 1.64 h. For the same molecule, the half-life at 2 μM in data set [6] was determined as 4.87 h.

Turning to `O=C(O)c1nn[nH]c1Oc1ccc(-c2ccccc2)nc1` [Example I-263, 5-((6-Phenylpyridin-3-yl)oxy)-1H-1,2,3-triazole-4-carboxylic acid], the IC50 was greater than 10000 nM in data set [2] and 141 nM in data set [8]. In addition, the solubility at 1 h in data set [3] worked out at 106 µM (≈ 29.9 µg/mL); in data set [7], 99 µM (≈ 27.9 µg/mL). Also, the recovery at 5 h, 1 μM in data set [4] is 111%. In addition, in data set [4] (read-out: Protein Binding Fraction Bound (converted)), the fraction unbound at 5 h, 1 μM was 0.014. Also, the CLint scaled at 1 μM in data set [5] was found to be 2.48 mL/min/kg. In addition, the half-life at 1 μM in data set [5] was determined as 11.7 h. For the same molecule, the half-life at 2 μM in data set [6] came to 1.51 h.

Turning to `O=C(O)c1nn[nH]c1Oc1ccc2ccccc2c1` [Example I-058, 5-(Naphthalen-2-yloxy)-1H-1,2,3-triazole-4-carboxylic acid], the IC50 in data set [2] amounted to 2000 nM; in data set [8] it was 50 nM. For the same molecule, the solubility at 1 h in data set [3] came to 90.8 µM (≈ 23.2 µg/mL); in data set [7] it was 81.5 µM (≈ 20.8 µg/mL). The recovery at 5 h, 1 μM in data set [4] was determined as 101%. Further, the CLint scaled at 1 μM in data set [5] was 2.1 mL/min/kg. Further, in data set [5], the half-life at 1 μM was determined as 13.8 h. In addition, in data set [6], the half-life at 2 μM was 0.852 h.
